From ChEMBL document CHEMBL1201862, “PubChem BioAssay data set” (2004)
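The compound was tested at five concentrations on cells cultured in 96-well plates, with a 48-hour exposure period. GI50 is the concentration that inhibits growth by half.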 Activity calls are given as the source filed them. Cut-off read from the data, not from the text of the source: active = GI50 up to about 1.1 µM and inactive = higher.

Key:
Assay in all cases: growth of human tumour cells (NCI), 48 h
OVCAR-4 = test system: OVCAR-4
OVCAR-8 = test system: OVCAR-8
KM12 = test system: KM12
MCF7 = test system: MCF7
NCI-H460 = test system: NCI-H460
Malme-3M = test system: Malme-3M
OVCAR-5 = test system: OVCAR-5
DU-145 = test system: DU-145
SF-539 = test system: SF-539
CAKI-1 = test system: CAKI-1
MDA-MB-231 = test system: MDA-MB-231
SK-MEL-2 = test system: SK-MEL-2
HCT-15 = test system: HCT-15
SK-MEL-28 = test system: SK-MEL-28
SF-295 = test system: SF-295
K562 = test system: K562
MOLT-4 = test system: MOLT-4
HOP-92 = test system: HOP-92
SNB-19 = test system: SNB-19
A549 = test system: A549
COLO 205 = test system: COLO 205
OVCAR-3 = test system: OVCAR-3
UACC-62 = test system: UACC-62
PC-3 = test system: PC-3
SK-MEL-5 = test system: SK-MEL-5
LOX IMVI = test system: LOX IMVI
UO-31 = test system: UO-31
NCI-H23 = test system: NCI-H23
UACC-257 = test system: UACC-257
NCI-H226 = test system: NCI-H226
MDA-MB-435 = test system: MDA-MB-435
SR = test system: SR
Hs-578T = test system: Hs-578T
NCI/ADR-RES = test system: NCI/ADR-RES
HCC 2998 = test system: HCC 2998
SNB-75 = test system: SNB-75
CCRF-CEM = test system: CCRF-CEM
A498 = test system: A498
ACHN = test system: ACHN
SK-OV-3 = test system: SK-OV-3
TK-10 = test system: TK-10
U-251 = test system: U-251
T47D = test system: T47D
HT-29 = test system: HT-29
SN12C = test system: SN12C
HOP-62 = test system: HOP-62
HCT-116 = test system: HCT-116
786-0 = test system: 786-0
IGROV-1 = test system: IGROV-1
M14 = test system: M14
EKVX = test system: EKVX
MDA-N = test system: MDA-N
SW-620 = test system: SW-620
BT-549 = test system: BT-549

Structure (SMILES): Sc1nnc(Cc2ccc(Cl)cc2)[nH]1
- GI50 (OVCAR-4): 71.9 µM (inactive)
- GI50 (OVCAR-8): 46.6 µM (inactive)
- GI50 (KM12): 43.2 µM (inactive)
- GI50 (MCF7): 51.9 µM (inactive)
- GI50 (NCI-H460): 50.8 µM (inactive)
- GI50 (Malme-3M): 29.1 µM (inactive)
- GI50 (OVCAR-5): > 100 µM (inactive)
- GI50 (DU-145): 67 µM (inactive)
- GI50 (SF-539): 66.4 µM (inactive)
- GI50 (CAKI-1): 56.2 µM (inactive)
- GI50 (MDA-MB-231): 42.3 µM (inactive)
- GI50 (SK-MEL-2): > 100 µM (inactive)
- GI50 (HCT-15): 59.6 µM
- GI50 (SK-MEL-28): > 100 µM (inactive)
- GI50 (SF-295): 43.7 µM (inactive)
- GI50 (K562): 48.8 µM (inactive)
- GI50 (MOLT-4): 50.2 µM (inactive)
- GI50 (HOP-92): 16.2 µM (inactive)
- GI50 (SNB-19): 71 µM (inactive)
- GI50 (A549): 44.1 µM (inactive)
- GI50 (COLO 205): 48 µM (inactive)
- GI50 (OVCAR-3): > 100 µM (inactive)
- GI50 (UACC-62): 66.7 µM (inactive)
- GI50 (PC-3): 49.1 µM (inactive)
- GI50 (SK-MEL-5): 39.6 µM (inactive)
- GI50 (LOX IMVI): 38.1 µM (inactive)
- GI50 (UO-31): 32.4 µM (inactive)
- GI50 (NCI-H23): 26.6 µM (inactive)
- GI50 (UACC-257): 60.5 µM (inactive)
- GI50 (NCI-H226): 65.5 µM (inactive)
- GI50 (MDA-MB-435): 88.3 µM (inactive)
- GI50 (SR): 58.6 µM (inactive)
- GI50 (Hs-578T): 16.4 µM (inactive)
- GI50 (NCI/ADR-RES): 42.1 µM (inactive)
- GI50 (HCC 2998): > 100 µM (inactive)
- GI50 (SNB-75): 33.2 µM (inactive)
- GI50 (CCRF-CEM): 63.1 µM (inactive)
- GI50 (A498): 57.4 µM (inactive)
- GI50 (ACHN): 45.3 µM (inactive)
- GI50 (SK-OV-3): 68.5 µM (inactive)
- GI50 (TK-10): 66.2 µM (inactive)
- GI50 (U-251): 58.1 µM (inactive)
- GI50 (T47D): 29.4 µM (inactive)
- GI50 (HT-29): > 100 µM (inactive)
- GI50 (SN12C): 78.2 µM (inactive)
- GI50 (HOP-62): 93.1 µM (inactive)
- GI50 (HCT-116): 51.4 µM (inactive)
- GI50 (786-0): 61.4 µM (inactive)
- GI50 (IGROV-1): 44.5 µM (inactive)
- GI50 (M14): > 100 µM (inactive)
- GI50 (EKVX): 47.1 µM (inactive)
- GI50 (MDA-N): > 100 µM (inactive)
- GI50 (SW-620): 85.5 µM (inactive)
- GI50 (BT-549): > 100 µM (inactive)
